{"source": "patent US20080063601A1", "about": "“Compositions and methods relating to polycystic kidney disease” (priority 2004, published 2008)", "key": {"[1]": {"tested_on": "Pkd1^−/− murine kidney epithelial cells", "experiment": "Growth, p21 and active caspase-3 in Pkd1−/− kidney epithelial cells", "format": "cell-based", "details": "100 nM", "procedure": "Total cell lysates (0.5% Triton X-100, 50 mM Tris pH 7.4, 150 mM NaCl, […]) were prepared for Western blot analysis and samples were run out by SDS-PAGE as per manufacturers' protocols. Brightfield images of cells were taken using a 10× or 40× objective. Confocal microscopy (40×) was used for immunofluorescence imaging of polycystin-2.\nCalcium response to triptolide was, thus, shown to be dependent on polycystin-2. The biological response to calcium flux was next assessed in the murine Pkd1^−/− cell line, by adding 100 nM triptolide to the cultured cells and observing cell growth over time. Within the first 24 hours of culture, a minimal number of detached cells was observed. […] In the absence of triptolide, this cell line underwent a population doubling every 48 hours. […] It is possible that additional signaling pathways are activated by triptolide when Pkd1 is expressed. […] Therefore, Applicant assessed whether the inhibition of proliferation observed was due to p21 re-expression upon triptolide treatment."}, "Pkd2^+/− cells": {"tested_on": "Pkd2^+/− cells", "experiment": "Viability of Pkd2+/− kidney epithelial cells", "format": "cell-based, murine", "details": "Pkd2+/− cells (one copy each of Pkd1 and Pkd2), 100 nM"}, "HeLa cells": {"tested_on": "HeLa cells", "experiment": "[3H]-triptolide labeling followed by cellular fractionation", "format": "binding", "source_text": "To address first the nature of triptolide binding within the cell, Applicant determined this interaction was reversible as [^3H]-triptolide labeling was out competed by subsequent addition of excess unlabeled triptolide (FIG. 4A). […] Although 25% of the total cellular counts (i.e., representing bound triptolide) were found in the cytosolic fraction, it is uncertain whether this is specific binding or simply that free triptolide had dissociated from its binding protein due to experimental manipulation during fractionation. Since the data thus far had only shown binding within whole cells, Applicant next determined if this triptolide binding protein could be further characterized and/or enriched by its association with chromatographic reagents. HeLa cells were once again labeled with [^3H]-triptolide and total cell lysates were then passed over the anion exchange resin DEAE. […] Importantly, Applicant also observed that [^3H]-triptolide would only bind to intact cells in culture but would not bind to any component of a total cellular lysate as assessed by interaction with the DEAE resin. […]\nFor cellular fractionation studies, cells were allowed to swell on ice and lysed by passage through a syringe in a hypotonic lysis buffer (10 mM Tris-HCl+complete protease inhibitors). […] Gel slices were measured out in equal increments and the molecular weight range of each was calculated. […]"}, "polycystin-2 [2]": {"target": "T1, polycystin-2 (Mus musculus, UniProt O35245)", "T1 construct": "endogenous in cells; host or cells: Pkd1-/- (PN24) murine kidney proximal tubule epithelial cells", "T1 sequence (O35245 1-966)": "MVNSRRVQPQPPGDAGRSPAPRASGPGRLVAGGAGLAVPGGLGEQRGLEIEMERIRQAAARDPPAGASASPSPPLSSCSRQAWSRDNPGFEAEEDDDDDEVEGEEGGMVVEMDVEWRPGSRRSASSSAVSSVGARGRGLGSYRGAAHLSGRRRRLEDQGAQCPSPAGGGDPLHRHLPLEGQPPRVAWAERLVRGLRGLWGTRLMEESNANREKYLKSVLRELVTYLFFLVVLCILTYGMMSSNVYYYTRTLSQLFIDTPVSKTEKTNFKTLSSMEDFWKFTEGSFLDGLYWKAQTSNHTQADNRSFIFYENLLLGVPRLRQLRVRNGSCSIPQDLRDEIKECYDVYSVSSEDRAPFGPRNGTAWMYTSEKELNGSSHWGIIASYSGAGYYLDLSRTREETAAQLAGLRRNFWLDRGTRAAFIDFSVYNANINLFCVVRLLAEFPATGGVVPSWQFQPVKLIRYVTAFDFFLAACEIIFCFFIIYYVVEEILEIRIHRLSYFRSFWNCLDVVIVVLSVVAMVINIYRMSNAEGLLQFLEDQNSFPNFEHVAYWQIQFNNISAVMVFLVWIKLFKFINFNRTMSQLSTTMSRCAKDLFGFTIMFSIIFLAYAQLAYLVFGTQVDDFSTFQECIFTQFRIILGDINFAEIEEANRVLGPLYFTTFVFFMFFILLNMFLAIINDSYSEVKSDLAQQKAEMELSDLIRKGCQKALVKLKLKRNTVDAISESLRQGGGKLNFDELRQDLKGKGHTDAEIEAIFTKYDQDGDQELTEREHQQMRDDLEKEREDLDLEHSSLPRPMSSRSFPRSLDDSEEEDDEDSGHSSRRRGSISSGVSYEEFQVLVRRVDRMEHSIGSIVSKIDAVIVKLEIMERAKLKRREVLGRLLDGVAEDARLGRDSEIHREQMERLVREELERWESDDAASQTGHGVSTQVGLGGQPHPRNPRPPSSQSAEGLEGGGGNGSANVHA", "experiment": "Fluo-4 calcium imaging in murine kidney epithelial cells", "format": "cell-based", "details": "Pkd1^−/− cells, 100 nM perfused", "procedure": "(§1) Cells were plated on coverslips and loaded with Fluo-4 (Molecular Probes) diluted in DMSO/pluronic for 30 minutes prior to imaging. Cells were perfused with a calcium imaging buffer (HEPES, NaCl, KCl, MgSO4 and CaCl2) ±100 nM triptolide. All cell traces are indicative of individual cellular fluorescence and calcium release. Data is presented as change of fluorescence over baseline control (before triptolide addition).\n(§2) Murine kidney epithelial cell lines with differing polycystin-1 or polycystin-2 expression were used to establish a cellular based mechanism for polycystin-2 mediated calcium release in response to triptolide. Because the biochemical purification analysis identified polycystin-2 as a putative triptolide binding protein, Applicant assessed whether the calcium release was dependent upon expression of polycystin-1. Epithelial cells derived from the proximal nephric tubules of Pkd1^−/− mice were first examined to determine if calcium release was observed when 100 nM of triptolide was perfused through the imaging chamber. […] To strengthen the evidence that polycystin-2 was necessary for calcium release elicited by triptolide addition, it was reconstituted by stable expression of Pkd2 into the background of Pkd2^−/− cells, which were assessed for sensitivity to triptolide."}, "polycystin-2 [3]": {"tested_on": "polycystin-2", "experiment": "Fluo-4 calcium imaging in murine kidney epithelial cells", "format": "cell-based", "procedure": "as §1, §2"}}, "data": [{"smiles": "CC(C)[C@]12O[C@H]1[C@@H]1O[C@]13[C@]1(O[C@H]1C[C@H]1C4=C(CC[C@@]13C)C(=O)OC4)[C@@H]2O", "note": "[triptolide]", "values": [{"measurement": "active caspase-3 (western blot)", "setting": "[1]", "value": "failed to implicate triptolide induced apoptosis"}, {"measurement": "p21 expression (western blot)", "setting": "[1]; 96 hour time course", "value": "upregulated"}, {"measurement": "cell growth", "setting": "[1]; over 96 hours", "value": "growth arrested"}, {"measurement": "cell viability", "setting": "Pkd2^+/− cells", "value": "rapid cell death within 24 hours"}, {"measurement": "cellular fraction that binds [3H]-triptolide", "setting": "HeLa cells; S-100, P-100, insoluble fractions", "value": "predominantly to the membrane fraction (P-100)"}, {"measurement": "total cellular counts (bound triptolide) found in the cytosolic fraction", "setting": "HeLa cells; S-100 fraction", "value": 25, "unit": "%"}, {"measurement": "calcium release (Fluo-4 fluorescence)", "setting": "polycystin-2 [2]", "value": "clear rise in intracellular calcium levels"}, {"measurement": "calcium release (Fluo-4 fluorescence)", "setting": "polycystin-2 [3]; Pkd2^−/− cells, 100 nM perfused", "value": "no calcium release was detected"}, {"measurement": "calcium release (Fluo-4 fluorescence)", "setting": "polycystin-2 [3]; Pkd2 re-expressed (Rex) in Pkd2^−/− background, 100 nM", "value": "restored calcium release"}]}]}
